Experimental data as given in ChEMBL document CHEMBL5113380, “Functionalized quinoxalinones as privileged structures with broad-ranging pharmacological activities” (Eur J Med Chem, 2022).
Values after ≈ are worked out from the molar mass of the structure shown. One block for each compound: values may come before it.

Legend:
[1] = target: T1, Glutamate receptor ionotropic AMPA (Homo sapiens, UniProt P42261+P42262+P42263+P48058); assay: Binding affinity to AMPA receptor (unknown origin); type: protein-complex assay
Glutamate receptor 2 = Glutamate receptor 2 (Homo sapiens, UniProt P42262); assay: Binding affinity to GluA2 receptor (unknown origin)
Glutamate receptor 2, sequence (P42262 whole entry): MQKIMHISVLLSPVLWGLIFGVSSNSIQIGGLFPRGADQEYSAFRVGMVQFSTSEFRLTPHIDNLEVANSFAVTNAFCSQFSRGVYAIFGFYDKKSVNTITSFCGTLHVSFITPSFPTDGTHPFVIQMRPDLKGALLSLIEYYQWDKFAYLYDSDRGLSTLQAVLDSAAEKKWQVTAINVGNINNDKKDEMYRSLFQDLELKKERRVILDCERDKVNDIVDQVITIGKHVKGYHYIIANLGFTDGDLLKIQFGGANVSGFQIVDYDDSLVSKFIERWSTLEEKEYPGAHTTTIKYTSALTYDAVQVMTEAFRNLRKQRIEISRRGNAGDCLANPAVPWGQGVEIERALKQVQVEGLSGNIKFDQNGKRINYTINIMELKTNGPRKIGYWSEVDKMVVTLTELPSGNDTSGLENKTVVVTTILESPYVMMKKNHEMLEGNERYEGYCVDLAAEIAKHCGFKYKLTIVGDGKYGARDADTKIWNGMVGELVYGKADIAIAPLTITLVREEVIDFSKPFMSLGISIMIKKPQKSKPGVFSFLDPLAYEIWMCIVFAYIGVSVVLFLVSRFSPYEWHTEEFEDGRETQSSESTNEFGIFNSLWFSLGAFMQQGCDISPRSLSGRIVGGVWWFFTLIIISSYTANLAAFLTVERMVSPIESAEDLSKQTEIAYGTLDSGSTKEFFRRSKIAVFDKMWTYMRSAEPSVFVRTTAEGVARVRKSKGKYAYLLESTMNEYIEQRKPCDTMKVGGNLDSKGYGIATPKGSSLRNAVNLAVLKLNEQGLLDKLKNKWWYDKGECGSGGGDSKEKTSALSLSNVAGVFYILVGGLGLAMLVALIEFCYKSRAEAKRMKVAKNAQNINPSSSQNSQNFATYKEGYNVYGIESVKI

[2] = target: Glutamate receptor ionotropic, kainate 1 (Homo sapiens, UniProt P39086); assay: Binding affinity to GluK1 receptor (unknown origin)
Glutamate receptor ionotropic, kainate 1, sequence (P39086 whole entry): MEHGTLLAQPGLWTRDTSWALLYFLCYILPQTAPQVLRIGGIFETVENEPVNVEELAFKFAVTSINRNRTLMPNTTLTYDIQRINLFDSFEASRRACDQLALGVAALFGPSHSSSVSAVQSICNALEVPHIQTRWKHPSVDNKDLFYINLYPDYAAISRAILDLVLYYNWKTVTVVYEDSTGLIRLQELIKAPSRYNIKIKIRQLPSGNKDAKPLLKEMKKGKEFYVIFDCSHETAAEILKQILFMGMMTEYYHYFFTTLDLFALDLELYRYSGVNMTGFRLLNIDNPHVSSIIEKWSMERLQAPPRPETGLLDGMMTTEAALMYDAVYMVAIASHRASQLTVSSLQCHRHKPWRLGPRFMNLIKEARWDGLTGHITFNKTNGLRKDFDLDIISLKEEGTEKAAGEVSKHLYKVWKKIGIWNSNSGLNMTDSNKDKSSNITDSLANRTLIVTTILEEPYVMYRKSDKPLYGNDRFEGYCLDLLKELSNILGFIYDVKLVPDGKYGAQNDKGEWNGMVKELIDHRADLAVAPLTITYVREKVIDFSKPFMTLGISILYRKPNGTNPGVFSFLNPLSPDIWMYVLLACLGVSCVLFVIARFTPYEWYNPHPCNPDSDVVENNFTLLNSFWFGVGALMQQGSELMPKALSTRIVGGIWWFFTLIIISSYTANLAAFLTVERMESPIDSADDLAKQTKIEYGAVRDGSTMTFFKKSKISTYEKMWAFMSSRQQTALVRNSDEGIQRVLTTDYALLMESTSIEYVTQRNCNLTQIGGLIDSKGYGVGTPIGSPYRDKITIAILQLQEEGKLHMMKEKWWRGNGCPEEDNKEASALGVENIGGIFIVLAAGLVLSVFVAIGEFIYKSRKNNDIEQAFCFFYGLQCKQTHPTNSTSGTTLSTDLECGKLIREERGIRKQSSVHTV

[3] = target: Glutamate receptor ionotropic, kainate 2 (Homo sapiens, UniProt Q13002); assay: Binding affinity to GluK2 receptor (unknown origin)
Glutamate receptor ionotropic, kainate 2, sequence (Q13002 whole entry): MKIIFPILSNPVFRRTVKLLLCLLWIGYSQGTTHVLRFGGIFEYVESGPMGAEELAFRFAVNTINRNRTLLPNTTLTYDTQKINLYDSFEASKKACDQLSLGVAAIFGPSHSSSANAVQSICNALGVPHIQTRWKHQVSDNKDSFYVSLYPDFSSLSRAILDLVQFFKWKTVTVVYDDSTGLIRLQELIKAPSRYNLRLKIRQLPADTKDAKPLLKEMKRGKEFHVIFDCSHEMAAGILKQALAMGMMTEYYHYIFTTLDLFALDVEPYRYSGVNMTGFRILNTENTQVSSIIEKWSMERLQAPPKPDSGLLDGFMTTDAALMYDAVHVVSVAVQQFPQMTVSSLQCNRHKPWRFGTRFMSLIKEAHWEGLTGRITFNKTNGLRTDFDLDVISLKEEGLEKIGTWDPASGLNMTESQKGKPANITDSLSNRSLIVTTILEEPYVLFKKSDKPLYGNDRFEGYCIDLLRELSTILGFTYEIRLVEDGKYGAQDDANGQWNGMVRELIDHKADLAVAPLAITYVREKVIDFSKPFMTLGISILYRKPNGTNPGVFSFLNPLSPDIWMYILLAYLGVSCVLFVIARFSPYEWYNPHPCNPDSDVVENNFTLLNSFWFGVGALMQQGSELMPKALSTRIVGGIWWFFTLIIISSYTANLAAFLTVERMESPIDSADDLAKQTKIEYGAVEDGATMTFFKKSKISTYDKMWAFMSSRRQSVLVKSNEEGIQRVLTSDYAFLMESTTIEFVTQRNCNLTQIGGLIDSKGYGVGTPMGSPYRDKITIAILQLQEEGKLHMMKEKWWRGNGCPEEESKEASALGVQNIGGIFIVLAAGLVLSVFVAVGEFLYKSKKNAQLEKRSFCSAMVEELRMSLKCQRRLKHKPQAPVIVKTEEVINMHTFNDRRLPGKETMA

[4] = target: T2, Glutamate receptor ionotropic, kainate 5 (Homo sapiens, UniProt Q16478); assay: Binding affinity to GluK5 receptor (unknown origin)
T2 sequence (Q16478 whole entry): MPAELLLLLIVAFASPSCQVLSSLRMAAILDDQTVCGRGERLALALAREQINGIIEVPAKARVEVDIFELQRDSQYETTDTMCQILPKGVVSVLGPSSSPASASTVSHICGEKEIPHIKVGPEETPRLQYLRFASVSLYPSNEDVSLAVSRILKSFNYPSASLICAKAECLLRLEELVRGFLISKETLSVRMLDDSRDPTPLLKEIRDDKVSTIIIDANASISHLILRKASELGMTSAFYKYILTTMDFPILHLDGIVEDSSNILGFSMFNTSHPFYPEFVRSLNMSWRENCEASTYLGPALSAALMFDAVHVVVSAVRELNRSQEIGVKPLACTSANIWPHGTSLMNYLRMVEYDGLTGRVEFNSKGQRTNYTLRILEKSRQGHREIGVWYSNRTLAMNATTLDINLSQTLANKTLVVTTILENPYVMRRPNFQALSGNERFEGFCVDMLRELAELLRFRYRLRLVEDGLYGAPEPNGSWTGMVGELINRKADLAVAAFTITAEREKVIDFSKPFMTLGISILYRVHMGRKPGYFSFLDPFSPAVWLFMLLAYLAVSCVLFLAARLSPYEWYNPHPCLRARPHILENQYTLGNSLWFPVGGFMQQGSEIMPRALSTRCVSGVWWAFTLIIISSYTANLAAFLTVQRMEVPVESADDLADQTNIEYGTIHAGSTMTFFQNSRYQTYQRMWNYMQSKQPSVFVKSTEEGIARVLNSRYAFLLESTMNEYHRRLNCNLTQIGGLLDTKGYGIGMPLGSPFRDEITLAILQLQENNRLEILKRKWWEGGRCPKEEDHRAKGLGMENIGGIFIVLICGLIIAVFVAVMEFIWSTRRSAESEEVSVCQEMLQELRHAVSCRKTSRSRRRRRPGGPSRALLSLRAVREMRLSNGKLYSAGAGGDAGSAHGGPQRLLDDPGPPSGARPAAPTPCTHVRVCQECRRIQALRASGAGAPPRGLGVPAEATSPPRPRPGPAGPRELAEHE

Alpha amylase = target: T3, Alpha amylase (Homo sapiens, UniProt P0DUB6); assay: Inhibition of alpha-amylase (unknown origin)
T3 sequence (P0DUB6 whole entry): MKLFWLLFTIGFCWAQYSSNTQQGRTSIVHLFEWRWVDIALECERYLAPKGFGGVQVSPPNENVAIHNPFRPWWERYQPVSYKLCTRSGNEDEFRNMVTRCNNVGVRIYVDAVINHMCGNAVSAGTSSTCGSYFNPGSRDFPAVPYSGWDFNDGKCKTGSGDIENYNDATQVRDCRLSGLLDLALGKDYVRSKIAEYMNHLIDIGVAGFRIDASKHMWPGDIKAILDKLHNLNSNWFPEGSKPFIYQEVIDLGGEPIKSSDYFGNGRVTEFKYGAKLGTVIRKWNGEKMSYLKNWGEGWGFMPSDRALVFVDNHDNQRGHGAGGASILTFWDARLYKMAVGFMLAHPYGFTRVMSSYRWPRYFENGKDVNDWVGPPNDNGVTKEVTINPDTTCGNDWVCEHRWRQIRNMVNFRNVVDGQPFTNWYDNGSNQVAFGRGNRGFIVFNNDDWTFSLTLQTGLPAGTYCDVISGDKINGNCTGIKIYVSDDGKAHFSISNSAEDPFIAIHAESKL

[5] = target: Phospholipase A2, major isoenzyme (Sus scrofa, UniProt P00592); assay: Inhibition of porcine PLA2G1B
Phospholipase A2, major isoenzyme, sequence (P00592 whole entry): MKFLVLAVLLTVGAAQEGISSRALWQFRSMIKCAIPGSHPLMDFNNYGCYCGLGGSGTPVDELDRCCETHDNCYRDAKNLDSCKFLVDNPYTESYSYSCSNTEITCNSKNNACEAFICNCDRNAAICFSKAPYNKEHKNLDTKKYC

[6] = target: T4, Phospholipase A2, membrane associated (Homo sapiens, UniProt P14555); assay: Inhibition of human PLA2G2A
T4 sequence (P14555 whole entry): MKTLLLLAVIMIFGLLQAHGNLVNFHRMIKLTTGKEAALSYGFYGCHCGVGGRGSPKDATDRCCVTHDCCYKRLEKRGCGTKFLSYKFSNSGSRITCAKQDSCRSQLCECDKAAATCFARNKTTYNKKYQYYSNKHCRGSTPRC

Phospholipase A2 group V = target: T5, Phospholipase A2 group V (Homo sapiens, UniProt P39877); assay: Inhibition of human PLA2G5
T5 sequence (P39877 whole entry): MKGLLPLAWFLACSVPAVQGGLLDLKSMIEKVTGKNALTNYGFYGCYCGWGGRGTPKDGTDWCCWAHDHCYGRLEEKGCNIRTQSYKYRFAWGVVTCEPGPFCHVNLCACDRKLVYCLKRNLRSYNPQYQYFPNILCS

[7] = target: T6, Group 10 secretory phospholipase A2 (Homo sapiens, UniProt O15496); assay: Inhibition of human PLA2G10
T6 sequence (O15496 whole entry): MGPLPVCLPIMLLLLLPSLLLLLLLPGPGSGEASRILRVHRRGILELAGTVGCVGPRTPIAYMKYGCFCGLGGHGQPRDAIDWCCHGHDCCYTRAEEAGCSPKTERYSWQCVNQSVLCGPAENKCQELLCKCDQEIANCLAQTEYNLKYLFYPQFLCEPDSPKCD

[8] = target: T7, Group XIIA secretory phospholipase A2 (Homo sapiens, UniProt Q9BZM1); assay: Inhibition of human PLA2G12A
T7 sequence (Q9BZM1 whole entry): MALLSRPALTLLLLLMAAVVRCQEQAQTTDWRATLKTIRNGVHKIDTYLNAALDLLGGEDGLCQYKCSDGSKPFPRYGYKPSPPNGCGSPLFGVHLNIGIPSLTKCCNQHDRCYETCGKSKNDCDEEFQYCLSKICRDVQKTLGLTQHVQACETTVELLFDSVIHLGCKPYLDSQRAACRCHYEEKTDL

Staphylococcus aureus [9] = assay: Antibacterial activity against Staphylococcus aureus assessed as diameter zone of inhibition; type: functional
Bacillus subtilis = assay: Antibacterial activity against Bacillus subtilis assessed as diameter zone of inhibition; type: functional
Escherichia coli [10] = assay: Antibacterial activity against Escherichia coli assessed as diameter zone of inhibition; type: functional
Pseudomonas aeruginosa [11] = assay: Antibacterial activity against Pseudomonas aeruginosa assessed as diameter zone of inhibition; type: functional
Salmonella typhimurium = assay: Antibacterial activity against Salmonella typhimurium assessed as diameter zone of inhibition; type: functional, Salmonella enterica subsp. enterica serovar Typhimurium
Streptococcus pneumoniae [12] = assay: Antibacterial activity against Streptococcus pneumoniae assessed as diameter zone of inhibition; type: functional
Mus musculus = assay: Antiinflammatory activity against mouse assessed as reduction in carragenan-induced paw edema at 25 mg/kg,po treated 1 hr prior to carrageenan challenge; type: functional; set-up: scale not given: the % may be the effect or the level left
[13] = Cytotoxicity against mock-infected human MT4 cells; type: toxicity, cell-based
[14] = target: T1, Glutamate receptor ionotropic AMPA; assay: Displacement of [3H]AMPA from AMPA receptor (unknown origin); type: protein-complex assay
[15] = target: T1, Glutamate receptor ionotropic AMPA; assay: Displacement of [3H]CNQX from AMPA receptor (unknown origin); type: protein-complex assay
[16] = target: T1, Glutamate receptor ionotropic AMPA; assay: Displacement of [3H]kainic acid from AMPA receptor (unknown origin); type: protein-complex assay
Pseudomonas aeruginosa [17] = assay: Antibacterial activity against Pseudomonas aeruginosa; type: functional
Staphylococcus aureus [18] = assay: Antibacterial activity against Staphylococcus aureus; type: functional
Escherichia coli [19] = assay: Antibacterial activity against Escherichia coli W3110; type: functional
[20] = Inhibition of Escherichia coli topoisomerase 4
[21] = Lipophilicity, logD of compound; type: physicochemical; details: octanol/water
[22] = Dissociation constant, pKa of the compound; type: physicochemical
Streptococcus pneumoniae [23] = assay: Antibacterial activity against Streptococcus pneumoniae; type: functional
Escherichia coli [24] = assay: Antibacterial activity against Escherichia coli; type: functional
Klebsiella pneumoniae = assay: Antibacterial activity against Klebsiella pneumoniae; type: functional
[25] = target: Voltage-gated inwardly rectifying potassium channel KCNH2 (Homo sapiens, UniProt Q12809); assay: Inhibition of hERG; type: toxicity
Voltage-gated inwardly rectifying potassium channel KCNH2, sequence (Q12809 whole entry): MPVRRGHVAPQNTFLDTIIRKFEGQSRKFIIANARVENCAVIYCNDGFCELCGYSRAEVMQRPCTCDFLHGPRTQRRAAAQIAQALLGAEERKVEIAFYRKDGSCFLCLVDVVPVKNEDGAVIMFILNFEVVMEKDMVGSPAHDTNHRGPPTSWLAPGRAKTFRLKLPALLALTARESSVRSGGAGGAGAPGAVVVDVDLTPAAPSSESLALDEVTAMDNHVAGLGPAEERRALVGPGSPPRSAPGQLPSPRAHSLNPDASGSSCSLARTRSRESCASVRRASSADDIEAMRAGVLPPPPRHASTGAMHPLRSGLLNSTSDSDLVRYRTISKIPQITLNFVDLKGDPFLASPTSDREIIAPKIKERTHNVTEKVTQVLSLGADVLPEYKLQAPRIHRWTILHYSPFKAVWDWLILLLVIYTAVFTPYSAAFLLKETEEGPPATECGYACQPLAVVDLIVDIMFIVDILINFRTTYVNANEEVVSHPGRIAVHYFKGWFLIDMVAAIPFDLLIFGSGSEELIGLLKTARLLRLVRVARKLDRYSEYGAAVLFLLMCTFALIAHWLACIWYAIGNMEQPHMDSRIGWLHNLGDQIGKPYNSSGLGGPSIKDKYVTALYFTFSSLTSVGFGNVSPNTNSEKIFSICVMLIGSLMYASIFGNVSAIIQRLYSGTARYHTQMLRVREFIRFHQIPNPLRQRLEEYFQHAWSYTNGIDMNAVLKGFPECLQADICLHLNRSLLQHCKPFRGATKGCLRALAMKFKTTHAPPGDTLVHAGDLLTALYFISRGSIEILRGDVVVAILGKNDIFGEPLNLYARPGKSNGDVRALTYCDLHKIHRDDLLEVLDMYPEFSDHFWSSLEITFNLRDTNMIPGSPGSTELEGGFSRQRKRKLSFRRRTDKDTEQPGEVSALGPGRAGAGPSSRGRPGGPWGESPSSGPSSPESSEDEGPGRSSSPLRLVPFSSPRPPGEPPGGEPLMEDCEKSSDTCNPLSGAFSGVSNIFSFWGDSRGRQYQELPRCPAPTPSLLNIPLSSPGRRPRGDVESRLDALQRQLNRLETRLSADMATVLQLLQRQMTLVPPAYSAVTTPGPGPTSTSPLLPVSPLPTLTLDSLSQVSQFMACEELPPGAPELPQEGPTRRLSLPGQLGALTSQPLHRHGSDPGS

[26] = target: Glutamate [NMDA] receptor; assay: Displacement of [3H]DCKA from NMDA receptor (unknown origin); type: protein-complex assay, Homo sapiens
[27] = target: Glutamate [NMDA] receptor (Homo sapiens) (UniProt Q05586+Q12879+Q13224+O15399+O60391+Q14957+Q8TCU5); assay: Displacement of [3H]DCKA from NMDA receptor (unknown origin) at 10 ng/ml relative to control; type: protein-complex assay; details: filed as antagonist
[28] = Displacement of [3H]glycine from AMPA receptor (unknown origin); type: protein-complex assay, Homo sapiens
[29] = target: Glutamate [NMDA] receptor; assay: Displacement of [3H]MK-801 from NMDA receptor (unknown origin); type: protein-complex assay, Homo sapiens
[30] = target: T1, Glutamate receptor ionotropic AMPA; assay: Antagonist activity at AMPA receptor (unknown origin) assessed as AMPA-induced depolarizations; type: protein-complex assay
[31] = target: Glutamate [NMDA] receptor; assay: Antagonist activity at NMDA receptor (unknown origin) assessed as NMDA-induced depolarizations; type: protein-complex assay, Homo sapiens

Ki [1]: 0.96 µM
Ki (Glutamate receptor 2): 4.12 µM
Ki [2]: 1.12 µM
Ki [3]: 0.908 µM
Ki [4]: 26.4 µM
SMILES: O=C(Nn1c(=O)c(=O)[nH]c2cc(C(F)(F)F)c(F)cc21)c1ccccc1O

IC50 (Alpha amylase): 431.81 µM
IC50 [5]: 14.5 µM
IC50 [6]: 1.81 µM
IC50 (Phospholipase A2 group V): 3.04 µM
IC50 [7]: 2.71 µM
IC50 [8]: 1.41 µM
SMILES: O=c1[nH]c2ccccc2n2c(-c3ccc(Cl)c(Cl)c3)ccc12

SMILES: Cc1cccc(C)c1NCC(=O)N1CC(=O)Nc2ccccc21
diameter of the inhibition zone (DIZ) (Staphylococcus aureus [9]): 8 mm
diameter of the inhibition zone (DIZ) (Bacillus subtilis): 11 mm
diameter of the inhibition zone (DIZ) (Escherichia coli [10]): 10 mm
diameter of the inhibition zone (DIZ) (Pseudomonas aeruginosa [11]): 11 mm
diameter of the inhibition zone (DIZ) (Salmonella typhimurium): 9 mm
diameter of the inhibition zone (DIZ) (Streptococcus pneumoniae [12]): 8 mm

SMILES: CC(C)Cc1ccc(C(C)C(=O)O)cc1 (stereo not given) [IBUPROFEN]
Activity (Mus musculus): 39.3%

SMILES: COc1ccc2[nH]c(=O)c(CBr)nc2c1Cl
CC50 [13]: 21 µM

IC50 [14]: 9.3 µM
IC50 [15]: 9.2 µM
IC50 [16]: > 100 µM
SMILES: O=c1[nH]c2cc(CO)c(CO)cc2[nH]c1=O

IC50 (Alpha amylase): 1087.43 µM
IC50 [5]: 14.8 µM
IC50 [6]: 1.32 µM
IC50 (Phospholipase A2 group V): 1.05 µM
IC50 [7]: 0.61 µM
IC50 [8]: 0.91 µM
SMILES: O=c1[nH]c2ccccc2n2c(-c3ccc(O)cc3O)ccc12

MIC (Pseudomonas aeruginosa [17]): 1 µg/mL (≈ 2.15 µM)
MIC (Staphylococcus aureus [18]): 0.03 µg/mL (≈ 0.0646 µM)
MIC (Escherichia coli [19]): 0.13 µg/mL (≈ 0.28 µM)
IC50 [20]: 0.0022 µM
logD [21]: 0.6
pKa [22]: 5.56
MIC (Streptococcus pneumoniae [23]): 0.08 µg/mL (≈ 0.172 µM)
SMILES: COc1ccc2ncc(=O)n(CCN3CCC(NCc4ccc5c(n4)NC(=O)CO5)CC3)c2c1

MIC (Pseudomonas aeruginosa [17]): 1 µg/mL (≈ 2.09 µM)
MIC90 (Pseudomonas aeruginosa [17]): 4 µg/mL (≈ 8.36 µM)
MIC (Escherichia coli [24]): 0.5 µg/mL (≈ 1.04 µM)
MIC90 (Escherichia coli [24]): 0.5 µg/mL (≈ 1.04 µM)
MIC (Staphylococcus aureus [18]): 8 µg/mL (≈ 16.7 µM)
MIC (Klebsiella pneumoniae): 8 µg/mL (≈ 16.7 µM)
IC50 [20]: 0.002 µM
logD [21]: -0.86
pKa [22]: 7.66
SMILES: COc1cnc2ccc(=O)n(C[C@@H](N)[C@H]3CC[C@H](NCc4ccc5c(n4)NC(=O)CO5)CC3)c2c1
IC50 [25]: > 333 µM

Ki [26]: 0.0051 µM
Activity [27]: 90.3%
SMILES: O=C(O)CC1CCc2cc(Cl)cc3[nH]c(=O)c(=O)n1c23 (stereo not given)

SMILES: O=C1CN(C(=O)CCl)c2ccccc2N1
diameter of the inhibition zone (DIZ) (Pseudomonas aeruginosa [11]): 15 mm
diameter of the inhibition zone (DIZ) (Streptococcus pneumoniae [12]): 16 mm

Ki [14]: 0.53 µM
Ki [28]: 28 µM
IC50 [16]: 8.9 µM
IC50 [29]: 43 µM
IC50 [30]: 1.2 µM
IC50 [31]: 23 µM
SMILES: O=Cc1ccn(-c2cc3c(cc2Cl)nc(O)c2nc(C(=O)O)nn23)c1

Ki [14]: 0.14 µM
Ki [28]: 33.5 µM
IC50 [16]: 11.6 µM
IC50 [30]: 2.3 µM
IC50 [31]: 46 µM
SMILES: O=C(O)c1nc2c(=O)[nH]c3cc(Cl)c(-n4cnnc4)cc3n2n1 [TQX-173]
